Where two headings read alike, the source gives them in different places.

Protocol for MDA PCa 2b cells: (§1) MDA PCa 2b was seeded at the same density in medium BRFF-HPC1 (Athena Enzyme Systems, Baltimore, Md., USA) supplemented with 20% FBS. After overnight incubation, the medium was changed to a fresh medium containing different concentrations of test compounds diluted from stock DMSO solution. The final concentration of DMSO is 0.5%. After 72 h of incubation with test compounds, 20 μL of 3-(4,5-dimethyl thiazol-2-yl)-2,5-diphenyltetrazolium bromide (MTT) solution (5 mg/mL in PBS) were added to each well and incubated further for 2 h. Next, the supernatant was aspirated and the MTT formazan formed by metabolically viable cells was dissolved in 100 μL of isopropanol. The plates were mixed for 30 min, and the absorbance was measured at 600 nm on a plate reader (FLUOstar OPTIMA, BMG LabTech). All samples were in triplicate. The IC50 values were determined from dose-response curves by nonlinear regression using PRISM v5.00 (GraphPad Software Inc, La Jolla, Calif., USA).
(§2) The in vitro cytotoxicity of 1-20 were evaluated by MTT assays in a panel of prostate cancer cell lines, including LNCaP, MDA PCa 2b, 22Rv1, C4-2B and PC-3.
Protocol for PC-3 cells: as §1, §2

By IC50 is commonly meant the concentration that gives 50% inhibition. As for `CC1=CCCC(C)(C)C1/C=C/C(=O)/C=C/c1cccc([N+](=O)[O-])c1` (racemic) [Compound B21], the IC50 came to 4 µM in the series on C4-2B cells; 2.9 µM in the series on PC-3 cells; 3.3 µM in the series on LNCaP cells; 4.7 µM in the series on 22Rv1 cells; 5.9 µM with MDA PCa 2b cells.
Take `CC1=C(/C=C/C(=O)/C=C/c2ccc(C(F)(F)F)cc2)C(C)(C)CCC1O` (racemic) [Compound B26]: the IC50 in the series on PC-3 cells was found to be 10.2 µM; in the series on LNCaP cells, 3 µM; in the series with 22Rv1 cells, 3.2 µM; in the series with MDA PCa 2b cells it was 9.3 µM.
Regarding `CC1=C(/C=C/C(=O)/C=C/c2c(F)cccc2C(F)(F)F)C(C)(C)CCC1O` (racemic) [Compound B37], the IC50 in the series with PC-3 cells came to 8.8 µM; with LNCaP cells, 4.9 µM; with 22Rv1 cells, 8.9 µM.
`CC1=CCCC(C)(C)C1/C=C/C(=O)/C=C/c1ccccc1C(F)(F)F` (racemic) [Compound B16]: the IC50 in the series on C4-2B cells came out at 11.7 µM; in the series on PC-3 cells, 19 µM; in the series on LNCaP cells, 22.6 µM; with 22Rv1 cells, 18.4 µM.
For `CC1=C(/C=C/C(=O)/C=C/c2cccc(C#N)c2)C(C)(C)CCC1O` (racemic) [Compound B39], the IC50 in the series with PC-3 cells was 7.2 µM; in the series on LNCaP cells, 1.8 µM; in the series with 22Rv1 cells it was 2.2 µM.
For the compound `CC1=CCCC(C)(C)C1/C=C/C(=O)/C=C/c1cc(C(F)(F)F)ccc1F` (racemic) [Compound B20], the IC50 was 4.7 µM in the series with C4-2B cells; 3.1 µM in the series on PC-3 cells; 1.7 µM in the series with LNCaP cells; 3.5 µM in the series with 22Rv1 cells; 3 µM in the series on MDA PCa 2b cells.
As to `CC1=C(/C=C/C(=O)/C=C/c2cccc([N+](=O)[O-])c2)C(C)(C)CCC1O` (racemic) [Compound B40], the IC50 came out at 5.8 µM in the series with PC-3 cells, 2 µM with LNCaP cells, 1.9 µM with 22Rv1 cells and 6 µM in the series with MDA PCa 2b cells.
Consider `CC1=CCCC(C)(C)C1/C=C/C(=O)/C=C/c1ccccc1F` (racemic) [Compound B19], for which the half-maximal inhibitory concentration (IC50) in the series on C4-2B cells came to 6 µM; in the series on PC-3 cells, 4.8 µM; in the series on LNCaP cells it was 1.6 µM; in the series on 22Rv1 cells it was 9.4 µM; in the series on MDA PCa 2b cells it was 8.3 µM.
As for `CC1=C(/C=C/C(=O)/C=C/c2cc(C(F)(F)F)ccc2F)C(C)(C)CCC1O` (racemic) [Compound B36], the values for the IC50 in the series with PC-3 cells, in the series with LNCaP cells and with 22Rv1 cells were 3.6 µM, 1.7 µM and 2 µM, respectively.
In the same order, the values of `CC1=C(/C=C/C(=O)/C=C/c2ccccc2F)C(C)(C)CCC1O` (racemic) [Compound B29] are 10.4 µM, 2.9 µM and 3.3 µM.
For `CC1=C(/C=C/C(=O)/C=C/c2cccc(C)c2)C(C)(C)CCC1O` (racemic) [Compound B38], the IC50 in the series with PC-3 cells came to 6.2 µM; in the series on LNCaP cells, 4.1 µM; with 22Rv1 cells it was 4.4 µM; in the series on MDA PCa 2b cells it was 19 µM.
Consider `CC1=C(/C=C/C(=O)/C=C/c2ccc([N+](=O)[O-])cc2)C(C)(C)CCC1O` (racemic) [Compound B41], for which the IC50 was 15 µM in the series with PC-3 cells, 4.2 µM with LNCaP cells and 4.1 µM in the series with 22Rv1 cells.
For the compound `COc1cc(/C=C/C(=O)/C=C/C2=C(C)CCCC2(C)C)ccc1O` [Compound B1], the IC50 was 21.3 µM in the series on PC-3 cells and 9.5 µM in the series with LNCaP cells.
Turning to `CC1=C(/C=C/C(=O)/C=C/c2cccc(F)c2)C(C)(C)CCC1O` (racemic) [Compound B30], the IC50 came out at 16 µM in the series on PC-3 cells, 4.4 µM with LNCaP cells and 5.6 µM in the series with 22Rv1 cells.
Take `CC1=C(/C=C/C(=O)/C=C/c2cc([N+](=O)[O-])ccc2Cl)C(C)(C)CCC1` [Compound B13]: the half-maximal inhibitory concentration (IC50) with PC-3 cells was 18.9 µM; in the series on LNCaP cells, 4.2 µM.
On to `CC1=C(/C=C/C(=O)/C=C/c2ccccc2C(F)(F)F)C(C)(C)CCC1O` (racemic) [Compound B24], for which the IC50 is 3.7 µM in the series on PC-3 cells, 2.9 µM with LNCaP cells, 2.3 µM in the series with 22Rv1 cells and 2.9 µM with MDA PCa 2b cells.
Take `CC1=C(/C=C/C(=O)/C=C/c2cc(C(F)(F)F)cc(C(F)(F)F)c2)C(C)(C)CCC1` [Compound B7]: the IC50 turned out to be 7.2 µM in the series on PC-3 cells and 8.7 µM with LNCaP cells.
For `CC1=CCCC(C)(C)C1/C=C/C(=O)/C=C/c1cccc(C(F)(F)F)c1` (stereo not shown) [Compound B17, (1E,4E)-1-(3-(trifluoromethyl)phenyl)-5-(2,6,6-trimethylcyclohex-2-enyl)penta-1,4-dien-3-one], the half-inhibitory concentration (IC50) with C4-2B cells (human, 72 h) was found to be 4.4 µM; in the series on PC-3 cells (human, 72 h) it was 5.2 µM; with LNCaP cells (human, 72 h), 1 µM; in the series with 22Rv1 cells (human, 72 h) it was 2.9 µM; with MDA PCa 2b cells (human, 72 h), 4.4 µM.
As for `CC1=C(/C=C/C(=O)/C=C/c2cc(F)cc(C(F)(F)F)c2)C(C)(C)CCC1O` (racemic) [Compound B33], the half-maximal inhibitory concentration (IC50) in the series with PC-3 cells worked out at 3 µM; with LNCaP cells, 1.1 µM; with 22Rv1 cells it was 2.4 µM.
On to `CC1=C(/C=C/C(=O)/C=C/c2cccc([N+](=O)[O-])c2)C(C)(C)CCC1` [Compound B11], for which the results for the 50% inhibitory concentration (IC50) in the series with PC-3 cells and with LNCaP cells were 10 µM and 2.7 µM, respectively.
`CC1=C(/C=C/C(=O)/C=C/c2cc(C(F)(F)F)ccc2C(F)(F)F)C(C)(C)CCC1O` (racemic) [Compound B27]: the IC50 amounted to 1.9 µM in the series with PC-3 cells, 3.2 µM in the series with LNCaP cells and 4 µM in the series on MDA PCa 2b cells.
`CC1=C(/C=C/C(=O)/C=C/c2ccc(F)cc2)C(C)(C)CCC1O` (racemic) [Compound B31]: the IC50 was determined as 4 µM in the series on C4-2B cells, 6.2 µM in the series with PC-3 cells, 3.9 µM in the series with LNCaP cells and 7.5 µM in the series on 22Rv1 cells.
For `CC1=C(/C=C/C(=O)/C=C/c2cccc(C(F)(F)F)c2F)C(C)(C)CCC1O` (racemic) [Compound B34], the IC50 with PC-3 cells is 2.1 µM; in the series with LNCaP cells, 1.1 µM.
For `CC1=CCCC(C)(C)C1/C=C/C(=O)/C=C/c1cccc(C)c1` (racemic) [Compound B22], the IC50 with C4-2B cells came out at 6.2 µM; in the series with PC-3 cells, 5.9 µM; in the series with LNCaP cells, 12.2 µM; in the series with 22Rv1 cells it was 15.2 µM.
On to `CC1=C(/C=C/C(=O)/C=C/c2ccccc2F)C(C)(C)CCC1` [Compound B8], for which the values for the IC50 in the series on PC-3 cells and in the series with LNCaP cells were 22.1 µM and 10.7 µM, respectively.
Consider `CC1=C(/C=C/C(=O)/C=C/c2cc(C(F)(F)F)cc(C(F)(F)F)c2)C(C)(C)CCC1O` (racemic) [Compound B28], for which the IC50 was found to be 7 µM in the series with PC-3 cells, 2.1 µM with LNCaP cells, 2.2 µM in the series with 22Rv1 cells and 3.5 µM in the series on MDA PCa 2b cells.
For `CCOc1ccc(/C=C/C(=O)/C=C/C2=C(C)CCCC2(C)C)cc1OCC` [Compound B4], the results for the IC50 with PC-3 cells and with LNCaP cells were above 50 µM and 8.2 µM, respectively.
Turning to `COc1ccc(/C=C/C(=O)/C=C/C2=C(C)CCCC2(C)C)cc1OC` [Compound B3], the half-maximal inhibitory concentration (IC50) in the series with PC-3 cells amounted to 42 µM; in the series on LNCaP cells it was 9.5 µM.
`CC1=CCCC(C)(C)C1/C=C/C(=O)/C=C/c1ccc(C(F)(F)F)cc1` (racemic) [Compound B18]: the IC50 with C4-2B cells was found to be 5.2 µM; in the series with PC-3 cells, 7.9 µM; with LNCaP cells it was 4.7 µM; in the series on 22Rv1 cells, 3.3 µM; with MDA PCa 2b cells, 7 µM.
For the compound `CC1=C(/C=C/C(=O)/C=C/c2ccc(C(F)(F)F)cc2F)C(C)(C)CCC1O` (racemic) [Compound B35], the half-inhibitory concentration (IC50) was determined as 4.6 µM in the series with PC-3 cells, 2.6 µM in the series on LNCaP cells and 3.8 µM with 22Rv1 cells.

Source of the values: US8470889B2 (TRT Pharma Inc., priority 2008, dated 2013).
